From PubChem BioAssay AID1963847 (Molecular Pharmacology Branch, DTP, NCI, 2024)

Test system: 415267-285-R-J2-PDC complex spheroid viability
Assay: Anticancer human tumor 415267-285-R-J2-PDC patient-derived breast carcinoma cell line growth inhibition [POLQ]
Conditions: for IC50: curve of first compound; for viability, T/C: stronger effect = lower value
Description: Multicellular complex tumor spheroid response to Polymerase (POL) inhibitors (novobiocin, ART-558, RP6685) in combination with a variety of drugs and investigational agents in selected tumor cell lines
The POL inhibitors (novobiocin, ART-558, and RP6685) were evaluated both individually and in combination with standard of care and investigational anticancer small molecules within a complex spheroid model of solid tumors. . Complex spheroids include a stromal component modeled by human endothelial cells (HUVEC) and fibroblasts modeled by human mesenchymal stem cells (MSCs). The concentration ranges selected for each drug and investigational agent were based upon clinically achievable concentrations if the clinical Cmax of the agent was known.
Compounds. The drugs and investigational agents: novobiocin (NSC847541), ART-558 (NSC835418), RP-6685 (NSC848927), peposertib (NSC802822), ceralasertib (NSC780249), elimusertib (NSC800525), camonsertib (NSC841442), AZD-1390 (NSC803789), olaparib (NSC753686), talazoparib (NSC767125), rucaparib (NSC756644), sotorasib (NSC818433), MRTX-1133 (NSC836407), SN-38 (NSC673596), topotecan (NSC609699), epotoside (NSC141540), doxorubicin (NSC123127), gemcitabine (NSC613327), 5-fluorouracil (NSC19893), paclitaxel (NSC125973), vemurafenib (NSC761431), MSA-2 (NSC828583), SN-011 (NSC837082), adavosertib (NSC754352), prexasertib (NSC758257), carboplatin (NSC241240) and oxaliplatin (NSC266046), were obtained from the National Cancer Institute (NCI) Developmental Therapeutics Program Chemical Repository (21). The FDA-approved anticancer drug set is available from the Developmental Therapeutics Program at https://dtp.cancer.gov/organization/dscb/obtaining/. […] The stock solutions were prepared in dimethyl sulfoxide (DMSO, Sigma-Aldrich, St. Louis, MO, cat. D2650), except for the platinum compounds which were prepared in saline (Quality Biological, Gaithersburg, MD, cat. 114-055-101), at 800-fold the tested concentration and stored at -70 degrees C prior to their use. All drugs and investigational agents were tested over a range starting from a high concentration at or near the clinical Cmax and decreasing in half-log increments. If the clinical Cmax for an agent had not been determined, the highest concentration tested was 10 microM, except for SN-38, which was tested at a high concentration of 1 microM.
Cell Culture. All cells were maintained in an incubator at 37 degrees C and 5% CO2 with 95% humidity. The PDC lines were cultured according to standard operating procedures established by the NCI PDMR (https://pdmr.cancer.gov). Table 3 of the manuscript, lists the cell lines along with the number of the three cell types plated to form the mct-spheroids and media for tumor cell growth. After thawing, all PDC lines, except 997537-175-T-J1-PDC and 415267-285-R-J2-PDC, were cultured in Matrigel-coated flasks prepared with a working solution of 1X Ham's F-12 nutrient mix, without supplementation (Thermo Fisher Scientific, cat. 11765054), 100 U/mL penicillin-streptomycin (Thermo Fisher Scientific, cat. 15140122), and 2.5% Matrigel (Corning Inc., Corning, NY, cat. 354248) for the first three passages. The two PDC lines 997537-175-T-J1-PDC and 415267-285-R-J2-PDC were cultured on uncoated flasks. The 857933-349-R-J2-PDC line was cultured in 6C/Colon 1B media containing advanced DMEM/F-12 (Thermo Fisher Scientific, cat. 12634028), 10 mM HEPES (Thermo Fisher Scientific, cat. 15630080), 1X GlutaMAX supplement (Thermo Fisher Scientific, cat. 35050061), 0.1 mg/mL primocin (InvivoGen, San Diego, CA, cat. ant-pm-2), 10% defined fetal bovine serum, heat inactivated (HyClone Laboratories Inc., Logan, UT, cat. SH30070.03HI), 50% L-WRN conditioned media (ATCC, cat. CRL-3276), 1.25 mM N-Acetyl-L-cysteine (Sigma-Aldrich, cat. A9165), 10 mM nicotinamide (Sigma-Aldrich, cat. N0636), 1X B-27 supplement (Thermo Fisher Scientific, cat. 17504044), 1X N-2 supplement (Thermo Fisher Scientific, cat. […]

[1] = second compound 0.0316 µM, first compound 0.0316 µM
[2] = second compound 0.0316 µM, first compound 0.1 µM
[3] = second compound 0.0316 µM, first compound 0.316 µM
[4] = second compound 0.0316 µM, first compound 1 µM
[5] = second compound 0.0316 µM, first compound 3.16 µM
[6] = second compound 0.0316 µM, first compound 10 µM
[7] = second compound 0.1 µM, first compound 0.0316 µM
[8] = second compound 0.1 µM, first compound 0.1 µM
[9] = second compound 0.1 µM, first compound 0.316 µM
[10] = second compound 0.1 µM, first compound 1 µM
[11] = second compound 0.1 µM, first compound 3.16 µM
[12] = second compound 0.1 µM, first compound 10 µM
[13] = second compound 0.316 µM, first compound 0.0316 µM
[14] = second compound 0.316 µM, first compound 0.1 µM
[15] = second compound 0.316 µM, first compound 0.316 µM
[16] = second compound 0.316 µM, first compound 1 µM
[17] = second compound 0.316 µM, first compound 3.16 µM
[18] = second compound 0.316 µM, first compound 10 µM
[19] = second compound 1 µM, first compound 0.0316 µM
[20] = second compound 1 µM, first compound 0.1 µM
[21] = second compound 1 µM, first compound 0.316 µM
[22] = second compound 1 µM, first compound 1 µM
[23] = second compound 1 µM, first compound 3.16 µM
[24] = second compound 1 µM, first compound 10 µM
[25] = second compound 3.16 µM, first compound 0.0316 µM
[26] = second compound 3.16 µM, first compound 0.1 µM
[27] = second compound 3.16 µM, first compound 0.316 µM
[28] = second compound 3.16 µM, first compound 1 µM
[29] = second compound 3.16 µM, first compound 3.16 µM
[30] = second compound 3.16 µM, first compound 10 µM
[31] = second compound 10 µM, first compound 0.0316 µM
[32] = second compound 10 µM, first compound 0.1 µM
[33] = second compound 10 µM, first compound 0.316 µM
[34] = second compound 10 µM, first compound 1 µM
[35] = second compound 10 µM, first compound 3.16 µM
[36] = second compound 10 µM, first compound 10 µM
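Further: spheroids exposed to compounds for one week before readout.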
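Wherever viability, T/C is given: luminescence used as stand-in measure of viable cells; 100% = DMSO vehicle control viability.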

Which results are given for `COc1cc2cc(C(=O)CCC(=O)O)sc2cc1OC` + COC1C(OC(N)=O)C(O)C(Oc2ccc3c(O)c(NC(=O)c4ccc(O)c(CC=C(C)C)c4)c(=O)oc3c2C)OC1(C)C?
IC50 (second compound 0.0316 µM): > 10 µM; IC50 (second compound 0.1 µM): > 10 µM; IC50 (second compound 0.316 µM): > 10 µM; IC50 (second compound 1 µM): > 10 µM; IC50 (second compound 3.16 µM): > 10 µM; IC50 (second compound 10 µM): > 10 µM; viability, T/C [1]: 99.7%; viability, T/C [2]: 104%; viability, T/C [3]: 101%; viability, T/C [4]: 104%; viability, T/C [5]: 103%; viability, T/C [6]: 102%; viability, T/C [7]: 102%; viability, T/C [8]: 106%; viability, T/C [9]: 97.7%; viability, T/C [10]: 107%; viability, T/C [11]: 102%; viability, T/C [12]: 109%; viability, T/C [13]: 107%; viability, T/C [14]: 97.3%; viability, T/C [15]: 101%; viability, T/C [16]: 98.6%; viability, T/C [17]: 117%; viability, T/C [18]: 105%; viability, T/C [19]: 98.7%; viability, T/C [20]: 111%; viability, T/C [21]: 109%; viability, T/C [22]: 107%; viability, T/C [23]: 104%; viability, T/C [24]: 106%; viability, T/C [25]: 96.1%; viability, T/C [26]: 105%; viability, T/C [27]: 101%; viability, T/C [28]: 113%; viability, T/C [29]: 96%; viability, T/C [30]: 98.1%; viability, T/C [31]: 101%; viability, T/C [32]: 109%; viability, T/C [33]: 102%; viability, T/C [34]: 102%; viability, T/C [35]: 96.7%; viability, T/C [36]: 104%

With `O=c1[nH]cc(F)c(=O)[nH]1` + COC1C(OC(N)=O)C(O)C(Oc2ccc3c(O)c(NC(=O)c4ccc(O)c(CC=C(C)C)c4)c(=O)oc3c2C)OC1(C)C as the molecule, how does the IC50 (second compound 0.0316 µM) read?
Its IC50 is 0.194 µM.

And the IC50 (second compound 0.1 µM)?
The IC50 was 0.197 µM.

What about the IC50 (second compound 0.316 µM) of the same molecule?
The IC50 was 0.162 µM.

And the IC50 (second compound 1 µM)?
Its IC50 is 0.176 µM.

And the IC50 (second compound 3.16 µM)?
The IC50 was 0.205 µM.

And the IC50 (second compound 10 µM)?
Its IC50 is 0.203 µM.

What about the viability, T/C [1] of the same molecule?
The viability, T/C was 94.1%.

And the viability, T/C [2]?
Its viability, T/C is 72.7%.

And the viability, T/C [3]?
Its viability, T/C is 33.1%.

And the viability, T/C [4]?
The viability, T/C was 31.1%.

What about the viability, T/C [5] of the same molecule?
The viability, T/C was 27.2%.

What about the viability, T/C [6] of the same molecule?
Its viability, T/C is 37.1%.

And the viability, T/C [7]?
Its viability, T/C is 86.9%.

And the viability, T/C [8]?
The viability, T/C was 73.1%.

What about the viability, T/C [9] of the same molecule?
The viability, T/C was 34.2%.

And the viability, T/C [10]?
The viability, T/C was 23.7%.

What about the viability, T/C [11] of the same molecule?
Its viability, T/C is 26.5%.

What about the viability, T/C [12] of the same molecule?
The viability, T/C was 39.3%.

What about the viability, T/C [13] of the same molecule?
The viability, T/C was 97.7%.

And the viability, T/C [14]?
The viability, T/C was 63.8%.

And the viability, T/C [15]?
Its viability, T/C is 31%.

And the viability, T/C [16]?
The viability, T/C was 27.2%.

What about the viability, T/C [17] of the same molecule?
The viability, T/C was 26.7%.

And the viability, T/C [18]?
Its viability, T/C is 34.5%.

What about the viability, T/C [19] of the same molecule?
Its viability, T/C is 85.8%.

What about the viability, T/C [20] of the same molecule?
Its viability, T/C is 63.5%.

And the viability, T/C [21]?
Its viability, T/C is 36.8%.

And the viability, T/C [22]?
The viability, T/C was 25.3%.

What about the viability, T/C [23] of the same molecule?
Its viability, T/C is 26.4%.

And the viability, T/C [24]?
Its viability, T/C is 29.9%.

What about the viability, T/C [25] of the same molecule?
Its viability, T/C is 94.6%.

And the viability, T/C [26]?
Its viability, T/C is 76.3%.

And the viability, T/C [27]?
Its viability, T/C is 34.2%.

What about the viability, T/C [28] of the same molecule?
The viability, T/C was 27.1%.

And the viability, T/C [29]?
The viability, T/C was 25.4%.

What about the viability, T/C [30] of the same molecule?
Its viability, T/C is 37.2%.

And the viability, T/C [31]?
Its viability, T/C is 92%.

What about the viability, T/C [32] of the same molecule?
The viability, T/C was 70%.

What about the viability, T/C [33] of the same molecule?
Its viability, T/C is 37.8%.

And the viability, T/C [34]?
The viability, T/C was 29.9%.

And the viability, T/C [35]?
The viability, T/C was 25.3%.

And the viability, T/C [36]?
The viability, T/C was 35.7%.
